Among the data in patent publication US8394990B2, “Phenylurea inhibitors of the enzyme SOAT-1 and pharmaceutical/cosmetic compositions comprised thereof” (Galderma Research & Development, priority 2007, dated 2013) are IC50 values, retold here.

In this assay the target is T1, enzyme ACAT-1 (Homo sapiens, UniProt P35610).
T1 construct: endogenous in cells; host or cells: HepG2
T1 sequence (P35610 1-550): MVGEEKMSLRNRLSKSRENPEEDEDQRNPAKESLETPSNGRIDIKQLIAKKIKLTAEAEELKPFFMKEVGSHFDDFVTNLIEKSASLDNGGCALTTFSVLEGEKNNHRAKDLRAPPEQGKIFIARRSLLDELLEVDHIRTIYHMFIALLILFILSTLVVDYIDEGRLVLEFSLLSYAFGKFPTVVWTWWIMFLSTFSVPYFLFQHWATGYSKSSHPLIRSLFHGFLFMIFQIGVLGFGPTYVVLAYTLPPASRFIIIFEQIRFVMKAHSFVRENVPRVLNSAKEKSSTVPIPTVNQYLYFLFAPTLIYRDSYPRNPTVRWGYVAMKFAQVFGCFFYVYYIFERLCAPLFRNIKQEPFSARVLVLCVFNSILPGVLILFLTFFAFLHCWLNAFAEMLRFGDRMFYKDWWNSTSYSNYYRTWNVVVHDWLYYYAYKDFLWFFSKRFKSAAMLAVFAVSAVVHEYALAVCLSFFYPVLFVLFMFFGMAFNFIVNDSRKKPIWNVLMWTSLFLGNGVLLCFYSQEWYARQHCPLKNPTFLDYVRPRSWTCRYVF
The assay is described as follows: NBD-cholesterol fluorescence test in HepG2 cells for inhibitory activity towards ACAT-1 (SOAT-1). Type of assay: cell-based. The settings on record: NBD-cholesterol 1 μg/ml, incubation 6 hrs at 37° C., fluorescence excitation 490 nm, emission 540 nm. The procedure:
The compounds (I) according to the invention, and the pharmaceutically acceptable salts, solvates and/or hydrates thereof, have inhibitory properties towards the enzyme SOAT-1. This inhibitory action on the enzyme SOAT-1 is measured according to a primary enzymatic test HepG2, as described below.
The compounds of formula (I) according to the invention were subjected to a test making it possible to evaluate their inhibitory activity towards the enzyme ACAT-1 inspired by the following publication: “Identification of ACAT1- and ACAT2-specific inhibitors using a novel, cell based fluorescence assay: individual ACAT uniqueness” J. lipid. Res (2004) vol 45, pages 378-386. The principle of this test is based on the use of NBD-cholesterol, an analogue of cholesterol whose fluorescence depends on its environment. When it is in a polar environment, it is weakly fluorescent, whereas in a non-polar environment it is strongly fluorescent. […]
The following method is applied: the HepG2 cells are incubated in the presence of NBD-cholesterol (1 μg/ml) and of the compound of formula (I) to be tested in transparent-bottomed black 96-well plates at a level of 30000 cells per well. […] After addition of 50 μl of lysis buffer (10 mM NaPO4, 1% lgepal), the plates are shaken for 5 mins and read in fluorescence (excitation 490 nm, emission 540 nm) on a FUSION instrument (Perkin Elmer).

For `CC(C)c1cccc(C(C)C)c1NC(=O)NCC1(Nc2ccccc2I)CCCC1` [I.2, 1-(2,6-diisopropylphenyl)-3-[1-(2-iodophenylamino)-cyclopentylmethyl)-urea], inhibition was half-maximal at 24.1 nM (IC50).
Under `CC(C)c1cccc(C(C)C)c1NC(=O)NCC1(Nc2ccccc2-c2ccccc2)CCCC1` [I.4, 1-[1-(biphenyl-2-ylamino)-cyclopentylmethyl]-3-(2,6-diisopropylphenyl)-urea] stands 9.5 nM.
